Reference: the kinase profiling compilation of Christmann-Franck et al. (2016)

Key:
Assay in all cases: radiometric filter-binding kinase assay
MAP2K1 (human) = MAP2K1 (human) (UniProt Q02750); conditions: compound 100.0 µM; ATP 5 µM
MAP3K1 (human) = MAP3K1 (human) (UniProt Q13233); conditions: compound 100.0 µM; ATP 50 µM
BTK (human) = BTK (human) (UniProt Q06187); conditions: compound 100.0 µM; ATP 50 µM
SRC (human) = SRC (human) (UniProt P12931); conditions: compound 100.0 µM; ATP 50 µM
RPS6KA5 KD1 KD2 (human) = RPS6KA5 KD1 KD2 (human) (UniProt O75582); conditions: compound 100.0 µM; ATP 20 µM
MKNK2 (human) = MKNK2 (human) (UniProt Q9HBH9); conditions: compound 100.0 µM; ATP 50 µM
BRSK1 (human) = BRSK1 (human) (UniProt Q8TDC3); conditions: compound 100.0 µM; ATP 20 µM
CHEK1 (human) = CHEK1 (human) (UniProt O14757); conditions: compound 100.0 µM; ATP 20 µM
DYRK1A (human) = DYRK1A (human) (UniProt Q13627); conditions: compound 100.0 µM; ATP 50 µM
ERBB4 (human) = ERBB4 (human) (UniProt Q15303); conditions: compound 100.0 µM; ATP 5 µM
IGF1R (human) = IGF1R (human) (UniProt P08069); conditions: compound 100.0 µM; ATP 5 µM
MAPK1 (human) = MAPK1 (human) (UniProt P28482); conditions: compound 100.0 µM; ATP 20 µM
MAP2K2 (human) = MAP2K2 (human) (UniProt P36507); conditions: compound 100.0 µM; ATP 5 µM
EPHB1 (human) = EPHB1 (human) (UniProt P54762); conditions: compound 100.0 µM; ATP 20 µM
TTK (human) = TTK (human) (UniProt P33981); conditions: compound 100.0 µM; ATP 20 µM
PIM3 (human) = PIM3 (human) (UniProt Q86V86); conditions: compound 100.0 µM; ATP 20 µM
MAPK12 (human) = MAPK12 (human) (UniProt P53778); conditions: compound 100.0 µM; ATP 5 µM
MAPK15 (human) = MAPK15 (human) (UniProt Q8TD08); conditions: compound 100.0 µM; ATP 5 µM
MAPK8 (human) = MAPK8 (human) (UniProt P45983); conditions: compound 100.0 µM; ATP 20 µM
MARK2 (human) = MARK2 (human) (UniProt Q7KZI7); conditions: compound 100.0 µM; ATP 20 µM
[1] = test system: AKT2 (human), P31751 [S474D]; conditions: compound 100.0 µM; ATP 50 µM
PIM1 (human) = PIM1 (human) (UniProt P11309); conditions: compound 100.0 µM; ATP 20 µM
MAPKAPK2 (human) = MAPKAPK2 (human) (UniProt P49137); conditions: compound 100.0 µM; ATP 20 µM
JAK2 JH1 JH2 (human) = JAK2 JH1 JH2 (human) (UniProt O60674); conditions: compound 100.0 µM; ATP 5 µM
DYRK3 (human) = DYRK3 (human) (UniProt O43781); conditions: compound 100.0 µM; ATP 5 µM
ROCK2 (rat) = conditions: compound 100.0 µM; ATP 20 µM; accession and sequence are those of the human protein
MAP3K5 (human) = MAP3K5 (human) (UniProt Q99683); conditions: compound 100.0 µM; ATP 50 µM
HIPK1 (human) = HIPK1 (human) (UniProt Q86Z02); conditions: compound 100.0 µM; ATP 20 µM
CAMKK2 (human) = CAMKK2 (human) (UniProt Q96RR4); conditions: compound 100.0 µM; ATP 20 µM
PTK6 (human) = PTK6 (human) (UniProt Q13882); conditions: compound 100.0 µM; ATP 20 µM
CSNK2A1 (human) = CSNK2A1 (human) (UniProt P68400); conditions: compound 100.0 µM; ATP 5 µM
INSR (human) = INSR (human) (UniProt P06213); conditions: compound 100.0 µM; ATP 20 µM
MKNK1 (human) = MKNK1 (human) (UniProt Q9BUB5); conditions: compound 100.0 µM; ATP 50 µM
IRAK4 (human) = IRAK4 (human) (UniProt Q9NWZ3); conditions: compound 100.0 µM; ATP 20 µM
IKBKB (human) = IKBKB (human) (UniProt O14920); conditions: compound 100.0 µM; ATP 5 µM
MARK4 (human) = MARK4 (human) (UniProt Q96L34); conditions: compound 100.0 µM; ATP 50 µM
MAPK14 (human) = MAPK14 (human) (UniProt Q16539); conditions: compound 100.0 µM; ATP 50 µM
YES1 (human) = YES1 (human) (UniProt P07947); conditions: compound 100.0 µM; ATP 20 µM
CSK (human) = CSK (human) (UniProt P41240); conditions: compound 100.0 µM; ATP 20 µM
NEK6 (human) = NEK6 (human) (UniProt Q9HC98); conditions: compound 100.0 µM; ATP 50 µM

YES1 (human), sequence (P07947 whole entry, looked up): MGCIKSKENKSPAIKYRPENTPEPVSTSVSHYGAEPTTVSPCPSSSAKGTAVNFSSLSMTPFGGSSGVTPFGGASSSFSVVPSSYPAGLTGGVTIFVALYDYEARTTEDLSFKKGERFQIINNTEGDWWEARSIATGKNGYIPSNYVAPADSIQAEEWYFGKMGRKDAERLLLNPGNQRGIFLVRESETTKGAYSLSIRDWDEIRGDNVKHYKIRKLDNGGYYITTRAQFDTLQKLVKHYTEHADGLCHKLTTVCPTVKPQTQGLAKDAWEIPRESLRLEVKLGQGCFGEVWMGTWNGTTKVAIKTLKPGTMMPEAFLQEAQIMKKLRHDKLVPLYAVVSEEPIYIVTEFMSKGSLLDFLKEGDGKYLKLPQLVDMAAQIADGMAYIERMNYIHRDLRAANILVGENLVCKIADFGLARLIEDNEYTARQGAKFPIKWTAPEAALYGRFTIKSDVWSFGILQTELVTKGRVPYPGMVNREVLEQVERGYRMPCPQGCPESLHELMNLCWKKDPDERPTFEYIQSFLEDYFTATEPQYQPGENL
IRAK4 (human), sequence (Q9NWZ3 whole entry, looked up): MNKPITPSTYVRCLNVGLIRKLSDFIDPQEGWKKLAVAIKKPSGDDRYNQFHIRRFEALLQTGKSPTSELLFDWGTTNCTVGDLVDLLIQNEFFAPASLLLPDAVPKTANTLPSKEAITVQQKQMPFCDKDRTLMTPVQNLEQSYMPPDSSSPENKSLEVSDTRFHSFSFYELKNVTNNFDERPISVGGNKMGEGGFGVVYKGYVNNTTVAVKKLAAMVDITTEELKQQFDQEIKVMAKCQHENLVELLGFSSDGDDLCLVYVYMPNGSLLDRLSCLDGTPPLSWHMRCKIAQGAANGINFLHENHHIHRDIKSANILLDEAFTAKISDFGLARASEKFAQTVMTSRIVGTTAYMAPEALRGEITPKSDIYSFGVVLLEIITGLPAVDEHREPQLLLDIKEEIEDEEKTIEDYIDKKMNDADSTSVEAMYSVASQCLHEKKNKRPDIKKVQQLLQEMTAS
MARK4 (human), sequence (Q96L34 whole entry, looked up): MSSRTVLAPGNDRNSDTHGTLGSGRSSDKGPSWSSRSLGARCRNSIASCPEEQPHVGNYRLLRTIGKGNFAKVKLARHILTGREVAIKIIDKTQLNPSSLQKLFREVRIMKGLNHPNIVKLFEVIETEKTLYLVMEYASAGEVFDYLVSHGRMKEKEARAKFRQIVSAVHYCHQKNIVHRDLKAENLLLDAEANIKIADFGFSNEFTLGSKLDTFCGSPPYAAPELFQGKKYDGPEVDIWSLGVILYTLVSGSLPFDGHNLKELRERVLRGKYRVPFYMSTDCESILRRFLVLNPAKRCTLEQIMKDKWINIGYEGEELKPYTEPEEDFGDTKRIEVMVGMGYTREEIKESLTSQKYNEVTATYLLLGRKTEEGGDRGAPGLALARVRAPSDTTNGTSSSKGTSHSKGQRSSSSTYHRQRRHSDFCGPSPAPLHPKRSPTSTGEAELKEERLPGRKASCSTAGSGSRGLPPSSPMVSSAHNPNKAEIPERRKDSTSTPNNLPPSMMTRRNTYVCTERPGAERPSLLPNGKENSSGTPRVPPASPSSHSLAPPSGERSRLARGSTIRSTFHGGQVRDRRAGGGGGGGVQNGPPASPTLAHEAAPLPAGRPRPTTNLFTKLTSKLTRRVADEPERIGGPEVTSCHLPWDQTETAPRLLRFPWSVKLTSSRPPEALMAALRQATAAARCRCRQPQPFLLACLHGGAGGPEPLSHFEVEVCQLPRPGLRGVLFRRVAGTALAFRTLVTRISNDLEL
AKT2 (human), P31751 [S474D], sequence (P31751 whole entry S474D, looked up): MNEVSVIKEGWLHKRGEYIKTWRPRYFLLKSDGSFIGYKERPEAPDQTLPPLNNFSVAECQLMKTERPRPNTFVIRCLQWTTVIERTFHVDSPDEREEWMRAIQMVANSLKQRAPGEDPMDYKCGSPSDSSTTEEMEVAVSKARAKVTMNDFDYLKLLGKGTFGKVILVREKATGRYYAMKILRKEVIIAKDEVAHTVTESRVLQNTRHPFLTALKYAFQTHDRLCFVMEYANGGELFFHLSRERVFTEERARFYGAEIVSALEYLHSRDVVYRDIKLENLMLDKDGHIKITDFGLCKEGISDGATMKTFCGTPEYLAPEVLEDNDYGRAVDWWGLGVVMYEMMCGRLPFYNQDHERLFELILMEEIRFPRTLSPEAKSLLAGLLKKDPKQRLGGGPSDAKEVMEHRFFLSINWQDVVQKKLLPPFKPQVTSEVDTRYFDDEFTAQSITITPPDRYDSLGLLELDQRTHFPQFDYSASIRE
MKNK2 (human), sequence (Q9HBH9 whole entry, looked up): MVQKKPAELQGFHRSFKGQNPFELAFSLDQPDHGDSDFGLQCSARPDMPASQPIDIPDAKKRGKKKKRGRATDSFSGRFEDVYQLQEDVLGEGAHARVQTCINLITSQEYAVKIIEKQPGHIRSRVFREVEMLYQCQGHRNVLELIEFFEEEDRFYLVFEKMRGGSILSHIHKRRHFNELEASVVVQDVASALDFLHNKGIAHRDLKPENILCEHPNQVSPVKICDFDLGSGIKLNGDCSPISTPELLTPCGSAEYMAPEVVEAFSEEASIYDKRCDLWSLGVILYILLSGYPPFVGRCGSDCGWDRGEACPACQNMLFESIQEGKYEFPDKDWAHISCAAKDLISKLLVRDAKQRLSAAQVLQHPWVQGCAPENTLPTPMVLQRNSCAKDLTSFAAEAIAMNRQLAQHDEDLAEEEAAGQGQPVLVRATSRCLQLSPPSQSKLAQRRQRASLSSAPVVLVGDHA
BRSK1 (human), sequence (Q8TDC3 whole entry, looked up): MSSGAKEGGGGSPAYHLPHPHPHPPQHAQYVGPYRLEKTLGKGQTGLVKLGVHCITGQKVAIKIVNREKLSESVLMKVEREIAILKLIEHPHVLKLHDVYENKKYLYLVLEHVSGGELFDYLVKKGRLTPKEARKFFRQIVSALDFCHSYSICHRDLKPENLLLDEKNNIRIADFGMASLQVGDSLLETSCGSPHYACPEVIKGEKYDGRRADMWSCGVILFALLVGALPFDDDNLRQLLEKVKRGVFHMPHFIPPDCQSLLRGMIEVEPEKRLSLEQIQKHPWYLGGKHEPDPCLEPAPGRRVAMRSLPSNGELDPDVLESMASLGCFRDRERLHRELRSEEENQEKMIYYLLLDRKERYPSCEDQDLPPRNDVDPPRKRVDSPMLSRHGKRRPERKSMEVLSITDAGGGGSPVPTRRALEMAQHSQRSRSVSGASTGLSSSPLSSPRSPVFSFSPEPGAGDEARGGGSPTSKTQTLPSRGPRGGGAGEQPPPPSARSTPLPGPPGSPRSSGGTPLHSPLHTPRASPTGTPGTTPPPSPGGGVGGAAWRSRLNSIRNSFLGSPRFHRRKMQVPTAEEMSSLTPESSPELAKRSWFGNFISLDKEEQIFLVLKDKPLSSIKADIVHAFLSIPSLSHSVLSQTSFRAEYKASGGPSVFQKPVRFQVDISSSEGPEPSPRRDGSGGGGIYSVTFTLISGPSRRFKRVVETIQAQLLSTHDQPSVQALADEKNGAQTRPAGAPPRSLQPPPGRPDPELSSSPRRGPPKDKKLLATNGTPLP
CAMKK2 (human), sequence (Q96RR4 whole entry, looked up): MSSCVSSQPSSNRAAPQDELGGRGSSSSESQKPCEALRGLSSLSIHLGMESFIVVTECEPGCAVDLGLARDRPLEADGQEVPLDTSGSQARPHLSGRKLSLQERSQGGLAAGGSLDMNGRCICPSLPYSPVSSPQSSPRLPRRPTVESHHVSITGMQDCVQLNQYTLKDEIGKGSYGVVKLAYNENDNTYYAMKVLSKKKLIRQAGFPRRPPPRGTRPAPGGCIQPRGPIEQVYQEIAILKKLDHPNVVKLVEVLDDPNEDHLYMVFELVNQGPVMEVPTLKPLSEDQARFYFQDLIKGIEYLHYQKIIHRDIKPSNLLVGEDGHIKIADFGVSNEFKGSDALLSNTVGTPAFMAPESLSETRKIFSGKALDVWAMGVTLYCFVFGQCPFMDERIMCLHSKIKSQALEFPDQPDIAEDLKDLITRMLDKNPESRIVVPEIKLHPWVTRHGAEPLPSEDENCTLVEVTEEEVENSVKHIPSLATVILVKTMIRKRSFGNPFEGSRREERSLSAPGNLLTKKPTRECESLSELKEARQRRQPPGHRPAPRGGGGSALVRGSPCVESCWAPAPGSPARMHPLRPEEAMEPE
MAPK8 (human), sequence (P45983 whole entry, looked up): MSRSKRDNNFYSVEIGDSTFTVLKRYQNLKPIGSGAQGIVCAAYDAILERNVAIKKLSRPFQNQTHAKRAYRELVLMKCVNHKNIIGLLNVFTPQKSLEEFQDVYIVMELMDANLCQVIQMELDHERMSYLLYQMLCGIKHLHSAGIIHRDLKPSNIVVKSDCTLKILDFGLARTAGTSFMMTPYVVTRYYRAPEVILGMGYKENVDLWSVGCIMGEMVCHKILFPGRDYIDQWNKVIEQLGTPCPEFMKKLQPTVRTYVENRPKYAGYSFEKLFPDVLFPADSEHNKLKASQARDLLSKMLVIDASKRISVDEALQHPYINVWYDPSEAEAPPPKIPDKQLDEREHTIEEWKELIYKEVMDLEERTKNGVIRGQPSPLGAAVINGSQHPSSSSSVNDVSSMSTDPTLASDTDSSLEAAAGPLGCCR
PIM1 (human), sequence (P11309 whole entry, looked up): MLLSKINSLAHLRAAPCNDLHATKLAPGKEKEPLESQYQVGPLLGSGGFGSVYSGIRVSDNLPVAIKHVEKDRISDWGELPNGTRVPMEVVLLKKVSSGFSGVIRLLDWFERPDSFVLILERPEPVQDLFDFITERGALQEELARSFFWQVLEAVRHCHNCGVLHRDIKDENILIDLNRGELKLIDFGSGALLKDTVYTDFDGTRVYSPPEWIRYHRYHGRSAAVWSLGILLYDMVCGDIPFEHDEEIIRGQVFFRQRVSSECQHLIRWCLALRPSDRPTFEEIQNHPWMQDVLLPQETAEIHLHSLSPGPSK

inhibition (MAP2K1 (human)) | inhibition (MAP3K1 (human)) | inhibition (BTK (human)) | inhibition (SRC (human)) | inhibition (RPS6KA5 KD1 KD2 (human)) | inhibition (MKNK2 (human)) | inhibition (BRSK1 (human)) | inhibition (CHEK1 (human)) | inhibition (DYRK1A (human)) | inhibition (ERBB4 (human)) | inhibition (IGF1R (human)) | inhibition (MAPK1 (human)) | inhibition (MAP2K2 (human)) | inhibition (EPHB1 (human)) | inhibition (TTK (human)) | inhibition (PIM3 (human)) | inhibition (MAPK12 (human)) | inhibition (MAPK8 (human)) | inhibition (MARK2 (human)) | SMILES | inhibition (MAPK15 (human)) | further results
43% | 53% | 49% | 11% | 21% | 26% | 44% | 4% | 31% | 48% | 28% | 8% | 18% | 20% | 11% | 83% | 6% | 0% | 0% | O=c1cc(-c2ccccc2F)nc2[nH]ccn12 | 18% | inhibition [1]: 16%; inhibition (PIM1 (human)): 67%; inhibition (MAPKAPK2 (human)): 22%; inhibition (JAK2 JH1 JH2 (human)): 25%; inhibition (DYRK3 (human)): 30%; inhibition (ROCK2 (rat)): 29%; inhibition (MAP3K5 (human)): 8%; inhibition (HIPK1 (human)): 30%; inhibition (CAMKK2 (human)): 0%; inhibition (PTK6 (human)): 30%; inhibition (CSNK2A1 (human)): 20%; inhibition (INSR (human)): 6%; inhibition (MKNK1 (human)): 31%; inhibition (IRAK4 (human)): 40%; inhibition (IKBKB (human)): 15%; inhibition (MARK4 (human)): 0%; inhibition (MAPK14 (human)): 21%; inhibition (YES1 (human)): 33%; inhibition (CSK (human)): 8%; inhibition (NEK6 (human)): 7%
11% | 0% | 25% | 38% | 28% | 0% | 10% | 0% | 10% | 31% | 0% | 13% | 0% | 1% | 0% | 0% | 0% | 2% | 0% | COc1ccc(NC(=S)Nc2cnc3[nH]cnn3c2=O)cn1 | 8% | inhibition [1]: 41%; inhibition (PIM1 (human)): 0%; inhibition (MAPKAPK2 (human)): 26%; inhibition (JAK2 JH1 JH2 (human)): 23%; inhibition (DYRK3 (human)): 20%; inhibition (ROCK2 (rat)): 7%; inhibition (MAP3K5 (human)): 16%; inhibition (HIPK1 (human)): 0%; inhibition (CAMKK2 (human)): 0%; inhibition (PTK6 (human)): 9%; inhibition (CSNK2A1 (human)): 28%; inhibition (INSR (human)): 0%; inhibition (MKNK1 (human)): 3%; inhibition (IRAK4 (human)): 0%; inhibition (IKBKB (human)): 0%; inhibition (MARK4 (human)): 26%; inhibition (MAPK14 (human)): 0%; inhibition (YES1 (human)): 30%; inhibition (CSK (human)): 20%; inhibition (NEK6 (human)): 3%

Further lines, the compound ahead of its results:

SMILES | inhibition (MAP2K1 (human)) | inhibition (MAP3K1 (human)) | inhibition (BTK (human)) | inhibition (SRC (human)) | inhibition (RPS6KA5 KD1 KD2 (human)) | inhibition (MKNK2 (human)) | inhibition (BRSK1 (human)) | inhibition (CHEK1 (human)) | inhibition (DYRK1A (human)) | inhibition (ERBB4 (human)) | inhibition (IGF1R (human)) | inhibition (MAPK1 (human)) | inhibition (MAP2K2 (human)) | inhibition (EPHB1 (human)) | inhibition (TTK (human)) | inhibition (PIM3 (human)) | inhibition (MAPK12 (human)) | inhibition (MAPK8 (human)) | inhibition (MARK2 (human)) | inhibition (MAPK15 (human)) | further results
O=C(c1cccc(-c2cc3c(=O)[nH]cnc3s2)c1)N1CCOCC1 | 31% | 0% | 46% | 33% | 24% | 30% | 38% | 0% | 52% | 33% | 0% | 1% | 8% | 0% | 0% | 51% | 0% | 8% | 0% | 72% | inhibition [1]: 47%; inhibition (PIM1 (human)): 61%; inhibition (MAPKAPK2 (human)): 15%; inhibition (JAK2 JH1 JH2 (human)): 75%; inhibition (DYRK3 (human)): 47%; inhibition (ROCK2 (rat)): 39%; inhibition (MAP3K5 (human)): 54%; inhibition (HIPK1 (human)): 10%; inhibition (CAMKK2 (human)): 0%; inhibition (PTK6 (human)): 50%; inhibition (CSNK2A1 (human)): 41%; inhibition (INSR (human)): 0%; inhibition (MKNK1 (human)): 0%; inhibition (IRAK4 (human)): 28%; inhibition (IKBKB (human)): 37%; inhibition (MARK4 (human)): 0%; inhibition (MAPK14 (human)): 0%; inhibition (YES1 (human)): 0%; inhibition (CSK (human)): 10%; inhibition (NEK6 (human)): 44%
Cc1cccc(C)c1-c1cn2nc(N)nc2cn1 | 22% | 17% | 44% | 29% | 6% | 30% | 14% | 9% | 19% | 28% | 5% | 14% | 28% | 22% | 20% | 26% | 0% | 7% | 0% | 25% | inhibition [1]: 37%; inhibition (PIM1 (human)): 18%; inhibition (MAPKAPK2 (human)): 14%; inhibition (JAK2 JH1 JH2 (human)): 16%; inhibition (DYRK3 (human)): 30%; inhibition (ROCK2 (rat)): 19%; inhibition (MAP3K5 (human)): 15%; inhibition (HIPK1 (human)): 16%; inhibition (CAMKK2 (human)): 21%; inhibition (PTK6 (human)): 15%; inhibition (CSNK2A1 (human)): 17%; inhibition (INSR (human)): 24%; inhibition (MKNK1 (human)): 24%; inhibition (IRAK4 (human)): 18%; inhibition (IKBKB (human)): 0%; inhibition (MARK4 (human)): 24%; inhibition (MAPK14 (human)): 35%; inhibition (YES1 (human)): 42%; inhibition (CSK (human)): 24%; inhibition (NEK6 (human)): 3%
CC1CN(c2nc3ccccn3c(=O)c2N)CC(C)O1 (stereo not given) | 7% | 0% | 1% | 73% | 0% | 0% | 12% | 0% | 36% | 28% | 0% | 12% | 0% | 0% | 3% | 1% | 1% | 14% | 13% | 0% | inhibition [1]: 24%; inhibition (PIM1 (human)): 7%; inhibition (MAPKAPK2 (human)): 0%; inhibition (JAK2 JH1 JH2 (human)): 35%; inhibition (DYRK3 (human)): 49%; inhibition (ROCK2 (rat)): 17%; inhibition (MAP3K5 (human)): 4%; inhibition (HIPK1 (human)): 0%; inhibition (CAMKK2 (human)): 0%; inhibition (PTK6 (human)): 21%; inhibition (CSNK2A1 (human)): 97%; inhibition (INSR (human)): 1%; inhibition (MKNK1 (human)): 0%; inhibition (IRAK4 (human)): 3%; inhibition (IKBKB (human)): 22%; inhibition (MARK4 (human)): 56%; inhibition (MAPK14 (human)): 0%; inhibition (YES1 (human)): 57%; inhibition (CSK (human)): 0%; inhibition (NEK6 (human)): 0%
